Values of other authors as cited in patent publication US20050059087A1, “Antibodies directed to the deletion mutants of epidermal growth factor receptor and uses thereof” (priority 2003, published 2005).

Legend:
L1210 cells = details: treatment of L1210 cells in vivo; cited from earlier work
[1] = test system: P388 lymphocytic leukemia system; details: in vivo; cited from earlier work
[2] = test system: human acute lymphoblastic leukemia line CEM; details: in vitro; cited from earlier work
[3] = test system: P388, L1210, and LY5178 murine leukemic cell suspensions; details: in vitro; cited from earlier work
[4] = vs methotrexate, daunorubicin, vincristine; cited from earlier work

For `COc1cc2cc(c1Cl)N(C)C(=O)C[C@H](OC(=O)[C@H](C)N(C)C(C)=O)[C@]1(C)O[C@H]1[C@H](C)[C@@H]1C[C@@](O)(NC(=O)O1)[C@H](OC)/C=C/C=C(\C)C2` [Maytansine], the “Cells accumulating in mitosis” value (L1210 cells) is listed as 67%, the “Dosage range over which tumor growth was inhibited” value [1] is listed as 50- to 100 fold and the Inhibitory concentration [2] is listed as ≥ 10^−7 mg/ml. The Inhibitory doses [3] was 10^−3 to 10^−1 µg/µl and the “Cytotoxicity relative to conventional cancer chemotherapeutic agents” value [4] was 100 to 1000 fold.
